Data: US11787855B2, “Egg, fertilized egg, or embryo quality improving agent” (MPO, INC., priority 2016, dated 2023)

Experiments:
[1] = tested on: blastocysts of young mice transplanted into pseudopregnant mice; assay: Embryo transplantation of young mouse blastocysts obtained with added CXCL5 into pseudopregnant mice; assay type: in vivo
Text: After culturing for 4 days, an embryo reaching a blastocyst stage embryo was transplanted. Recipient mice were ICR female mice of 6 to 10 weeks of age, and mated with ICR male mice vasoligated on the day before a harvesting day, and an individual whose vaginal plug could be confirmed the next day was used. General anesthesia was given with somnopentyl anesthetic, and the uterus was exposed by a back dorsal incision. The uterus was fixed with tweezers, a 30 G injection needle (Dentronics, Tokyo, Japan) was drilled at an oviduct joint, a glass capillary with blastocyst aspirated was inserted, and the embryo was transplanted into the uterus. After transplantation, the uterus was carefully returned to the body, and the retroperitoneum and the skin were sutured. At the time of transplantation, blastocysts obtained from mice of each group were transplanted into recipient mice for each individual. Cesarean section was carried out on the 19th day with the next day of egg collection as the first day. Recipient mice were euthanized and underwent laparotomy, and the uterus was extracted and the fetus was removed. Implantation rate was calculated as the number of implantation traces/the number of embryo transplantations, and the offspring acquisition rate was calculated as the litter size/the number of implantation traces.
Based on the method described in Example 2, blastocysts of the control group and the drug treated group were transplanted into pseudopregnant mice. The implantation rate and the offspring acquisition rate were then calculated.

[2] = tested on: fertilized eggs of young mice; assay: In vitro culture of young mouse embryo with added CXCL5, blastocyst reaching rate; assay type: cell-based; conditions: vs non-added control group (FIG. 5)
Experimental: Mice past 3 weeks and 42 weeks of age confirmed the sexual cycle by vaginal smear. 10 IU of gonadotropin (ASKA Pharmaceutical. Co., Tokyo, Japan) was intraperitoneally administered at the time of proestrus. Cumulus oocyte complexes (COCs) were collected from a fallopian tube 15 hours after administration, and precultured for 30 minutes in 100 μl TYH medium (LSI Medience corporation, Tokyo, Japan). Meanwhile, ICR male mice (10-12 weeks old) were subjected to general anesthesia with somnopentyl anesthetic (Kyoritsuseiyaku Corporation, Tokyo, Japan), and cauda epididymis was extracted. A portion of the cauda epididymis was incised, and the internal sperm was extruded and collected. […] After culturing, the sperm was removed from the egg in 30 μl KSOM Medium (Merck Millipore, Darmstadt, Germany), and the number of 2 cell stage embryos was calculated at that time. […] The blastocyst reaching rate was calculated as the number of blastocysts/the number of two cell stage embryos.
In the in vitro culture system of young mouse embryo, whether or not there was a change in blastocyst reaching rate, implantation rate, offspring acquisition rate by adding the candidate factor was examined using a similar method to Example 2. Expression in the embryos of aging markers p16, p21, p53, PAI-1, and IL-6 was measured, and whether or not cell aging was induced was investigated. […]

[3] = tested on: aging markers (p16, p21, p53, PAI-1, IL-6) in young mouse embryos; assay: Expression levels of aging markers in embryos by Realtime RT-PCR; assay type: cell-based; conditions: embryos to which CXCL5 was added (n=30)
Experimental: In the in vitro culture system of young mouse embryo, whether or not there was a change in blastocyst reaching rate, implantation rate, offspring acquisition rate by adding the candidate factor was examined using a similar method to Example 2. Expression in the embryos of aging markers p16, p21, p53, PAI-1, and IL-6 was measured, and whether or not cell aging was induced was investigated. Specifically, the experiment was carried out as follows.
Expression levels of aging markers (p16, p21, p53, PAI-1, IL-6) in embryos to which CXCL5 was added (n=30) were measured using Realtime RT-PCR.

[4] = tested on: fertilized eggs of aged mice; assay: In vitro culture of aged mouse embryo, blastocyst reaching rate; assay type: cell-based; conditions: fertilized eggs of 42-week-old aged mice, different concentrations, cultured 4 days, control group vs drug treated group (FIG. 2)
Experimental: (§1) Ovulated mature eggs were collected from 42-week-old aged mice and subjected to in vitro fertilization, the obtained fertilized egg (zygote) was in vitro cultured using a culture medium to which a neutralizing antibody of a candidate factor or an antagonist of a specific receptor was added, and the blastocyst reaching rate was determined in order to verify embryo development ability. The obtained blastocysts were embryo transplanted into pseudopregnant mice, for which the implantation rate and the offspring acquisition rate were examined, and the quality of embryos was further evaluated. Specifically, the experiment was carried out as follows.
ICR female mice (CLEA Japan, Inc., Tokyo, Japan) were used as laboratory animals. The mice were bred at a room temperature of 22° C. and a humidity of 55% under light and dark environments every 12 hours. MF control diet (Oriental Yeast Co., ltd., Tokyo, Japan) was given 6 g per mouse per day. Water was allowed to be freely ingested at any time. […]
Mice past 3 weeks and 42 weeks of age confirmed the sexual cycle by vaginal smear. […] After culturing, the sperm was removed from the egg in 30 μl KSOM Medium (Merck Millipore, Darmstadt, Germany), and the number of 2 cell stage embryos was calculated at that time. […] The blastocyst reaching rate was calculated as the number of blastocysts/the number of two cell stage embryos.

[5] = tested on: blastocysts of aged mice transplanted into pseudopregnant mice; assay: Embryo transplantation of aged mouse blastocysts into pseudopregnant mice, implantation rate and offspring acquisition rate; assay type: in vivo; conditions: only antagonist 10 nM added (FIG. 4)
Experimental: as §1
After culturing for 4 days, an embryo reaching a blastocyst stage embryo was transplanted. Recipient mice were ICR female mice of 6 to 10 weeks of age, and mated with ICR male mice vasoligated on the day before a harvesting day, and an individual whose vaginal plug could be confirmed the next day was used. General anesthesia was given with somnopentyl anesthetic, and the uterus was exposed by a back dorsal incision. […] Implantation rate was calculated as the number of implantation traces/the number of embryo transplantations, and the offspring acquisition rate was calculated as the litter size/the number of implantation traces.

[6] = heat-denatured CXCL5 1,000 nM vs control group
[7] = T-test *P<0.05 vs control (FIG. 7)

Molecule: heat-denatured CXCL5: CXCL5 (ab9803, abcam) heat-denatured (95° C., 5 min), used at 1,000 nM
- implantation rate [1, 6]: no significant difference
- offspring acquisition rate [1, 6]: no significant difference
- blastocyst reaching rate ([2]; heat-denatured (95° C., 5 min) CXCL5 1,000 nM): not significantly different

Molecule: CXCL5: CXCL5 (ab9803, abcam), a chemokine, added to young mouse embryo culture
- offspring acquisition rate ([1]; CXCL5-added group vs control group (FIG. 6)): no significant difference
- implantation rate ([1]; CXCL5-added group vs control, *P<0.05 (FIG. 6)): decreased
- implantation rate ([1]; CXCL5 added at 1,000 nM vs non-addition control group (FIG. 6)): a significant difference was observed
- expression level of IL-6 [3, 7]: significant increase
- expression level of PAI-1 [3, 7]: significant increase
- expression level of p21 [3, 7]: significant increase
- expression level of p53 [3, 7]: significant increase
- expression level of p16 ([3]; vs control): no significant difference
- blastocyst reaching rate ([2]; CXCL5 100 nM, 300 nM, 1,000 nM, cultured 4 days): not significantly different

Molecule: O=C(Nc1ccc([N+](=O)[O-])cc1O)Nc1ccccc1Br [antagonist, SB225002]
- blastocyst reaching rate [4]: no significant difference
- implantation rate [5]: tended to be higher
- offspring acquisition rate [5]: tended to be higher
